Data as given in the supplement of paper PMC10307832.

What was measured:
Assay in all cases: relative viability (nuclei count vs DMSO), 5 days (fraction); higher = more cells survive
[1] = compound: CN(C)C[C@@H]1CCn2cc(c3ccccc32)C2=C(C(=O)NC2=O)c2cn(c3ccccc23)CCO1 [Ruboxistaurin] + CS(=O)(=O)N1CCN(Cc2cc3nc(-c4cccc5[nH]ncc45)nc(N4CCOCC4)c3s2)CC1 [Pictilisib] (partner 1 µM)
Method in brief: (§1)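 Lung cancer cell lines in 1536-well plates got either a single drug or a fixed anchor-drug dose together with five library-drug doses (not always all listed) in √10 steps, by pin tool, on the day after seeding. Nuclei were counted after 5 days, and relative viability is the treated-to-vehicle ratio of nuclei counts. Values are medians of duplicate plates.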

[2] = compound: CN(C)C[C@@H]1CCn2cc(c3ccccc32)C2=C(C(=O)NC2=O)c2cn(c3ccccc23)CCO1 [Ruboxistaurin] + CCNC(=O)c1noc(-c2cc(C(C)C)c(O)cc2O)c1-c1ccc(CN2CCOCC2)cc1 [Luminespib] (partner 0.01 µM)
Method in brief: as §1

[3] = compound: CN(C)C[C@@H]1CCn2cc(c3ccccc32)C2=C(C(=O)NC2=O)c2cn(c3ccccc23)CCO1 [Ruboxistaurin] + N=C(N)NC(=N)NCCc1ccccc1 [Phenformin] (partner 250 µM)
Method in brief: as §1

[4] = compound: CN(C)C[C@@H]1CCn2cc(c3ccccc32)C2=C(C(=O)NC2=O)c2cn(c3ccccc23)CCO1 [Ruboxistaurin] + C[C@]1(O)C[C@@H](c2nc(-c3ccc4ccc(-c5ccccc5)nc4c3)c3c(N)nccn32)C1 [Linsitinib] (partner 1 µM)
Method in brief: as §1

[5] = compound: CN(C)C[C@@H]1CCn2cc(c3ccccc32)C2=C(C(=O)NC2=O)c2cn(c3ccccc23)CCO1 [Ruboxistaurin] + C[C@@H](Oc1cc(-c2cnn(C3CCNCC3)c2)cnc1N)c1c(Cl)ccc(F)c1Cl [Crizotinib] (partner 1 µM)
Method in brief: as §1

| Cell Line | relative viability ([1]; first compound 0.08 µM) | relative viability ([1]; first compound 0.8 µM) | relative viability ([1]; first compound 2.53 µM) | relative viability ([1]; first compound 8 µM) | relative viability ([2]; first compound 0.08 µM) | relative viability ([2]; first compound 0.8 µM) | relative viability ([2]; first compound 2.53 µM) | relative viability ([2]; first compound 8 µM) | relative viability ([3]; first compound 0.08 µM) | relative viability ([3]; first compound 0.8 µM) | relative viability ([3]; first compound 2.53 µM) | relative viability ([3]; first compound 8 µM) | relative viability ([4]; first compound 0.08 µM) | relative viability ([4]; first compound 0.8 µM) | relative viability ([4]; first compound 2.53 µM) | relative viability ([4]; first compound 8 µM) | relative viability ([5]; first compound 0.08 µM) | relative viability ([5]; first compound 0.8 µM) | relative viability ([5]; first compound 2.53 µM) | relative viability ([5]; first compound 8 µM) |
| --- | --- | --- | --- | --- | --- | --- | --- | --- | --- | --- | --- | --- | --- | --- | --- | --- | --- | --- | --- | --- |
| NCI-H2009 | 0.819 | 0.796 | 0.825 | 0.552 | 1.14 | 1.01 | 0.984 | 1.15 | 0.579 | 0.442 | 0.536 | 0.502 | 1.18 | 1.14 | 1.18 | 1.23 | 1 | 0.959 | 1.06 | 1.08 |
| HCC-78 | 0.198 | 0.245 | 0.195 | 0.174 | – | – | – | – | 0.691 | 0.906 | 0.779 | 0.739 | 0.531 | 0.501 | 0.455 | 0.482 | 0.31 | 0.351 | 0.323 | 0.291 |
| NCI-H2170 | 0.301 | 0.256 | 0.322 | 0.253 | 0.779 | 0.649 | 0.758 | 0.522 | 0.443 | 0.429 | 0.458 | 0.474 | – | – | – | – | 1.15 | 1.13 | 1.2 | 1.21 |
| NCI-H1793 | 0.454 | 0.288 | 0.478 | 0.316 | 0.148 | 0.152 | 0.172 | 0.188 | 0.412 | 0.321 | 0.422 | 0.408 | 1.07 | 0.818 | 0.985 | 1.14 | – | – | – | – |
| HCC-366 | 0.237 | 0.116 | 0.151 | 0.137 | – | – | – | – | 0.666 | 0.572 | 0.629 | 0.664 | 0.691 | 0.526 | 0.68 | 0.33 | 0.58 | 0.518 | 0.605 | 0.536 |
| NCI-H1651 | 0.63 | 0.531 | 0.502 | 0.624 | 1.06 | 0.835 | 0.899 | 0.901 | 0.342 | 0.312 | 0.332 | 0.319 | 1.04 | 0.897 | 0.93 | 0.85 | 0.882 | 0.883 | 0.911 | 0.911 |
| LC-2-ad | 0.481 | 0.347 | 0.495 | 0.286 | 1.22 | 0.989 | 1.01 | 1.1 | 0.621 | 0.574 | 0.615 | 0.572 | 0.931 | 0.862 | 0.912 | 0.742 | 0.458 | 0.406 | 0.476 | 0.638 |
| HCC-827 | 0.993 | 0.866 | 1.08 | 1.27 | 0.748 | 0.708 | 0.627 | 0.612 | 0.454 | 0.397 | 0.427 | 0.384 | 0.933 | 0.962 | 0.951 | 1 | 0.977 | 0.907 | 1.01 | 0.96 |
| SK-LU-1 | 0.55 | 0.55 | 0.561 | 0.426 | 0.208 | 0.212 | 0.204 | 0.2 | 0.61 | 0.495 | 0.628 | 0.526 | 1.14 | 0.975 | 0.991 | 0.854 | 1.03 | 0.734 | 0.869 | 0.583 |
| ABC-1 | 0.865 | 0.774 | 0.787 | 0.506 | 0.773 | 0.823 | 0.564 | 0.669 | 0.252 | 0.245 | 0.182 | 0.233 | 0.767 | 0.865 | 0.969 | 0.625 | 1.41 | 0.45 | 1.29 | 0.784 |
| NCI-H1703 | 0.198 | – | 0.277 | 0.23 | – | – | – | – | – | – | – | – | 0.756 | 0.464 | 0.957 | 0.82 | 0.662 | 0.574 | 0.582 | 0.322 |
| COR-L 105 | 0.463 | 0.388 | 0.385 | 0.313 | 1.06 | 0.784 | 0.681 | 0.941 | 0.599 | 0.436 | 0.446 | 0.4 | 1.17 | 0.75 | 0.78 | 0.696 | 0.8 | 0.828 | 0.868 | 0.664 |
| LOU-NH91 | 0.554 | 0.494 | 0.526 | 0.502 | 0.286 | 0.298 | 0.361 | 0.369 | 0.827 | 0.666 | 0.722 | 0.751 | 1.11 | 0.902 | 0.994 | 0.883 | 0.806 | 0.694 | 0.757 | 0.77 |
| NCI-H661 | 0.463 | 0.499 | 0.493 | 0.422 | 0.883 | 0.817 | 0.942 | 1.01 | 0.253 | 0.268 | 0.297 | 0.29 | 0.809 | 0.538 | 0.718 | 0.545 | 0.991 | 0.924 | 1.08 | 1.08 |
| NCI-H1650 | 0.679 | 0.402 | 0.646 | 0.359 | 0.185 | 0.207 | 0.189 | 0.183 | 0.542 | 0.387 | 0.4 | 0.287 | – | – | – | – | 0.991 | 0.837 | 1.19 | 1.04 |
| NCI-H2342 | – | – | – | – | 0.762 | 0.732 | 0.892 | 0.738 | 0.626 | 0.585 | 0.616 | 0.597 | – | – | – | – | – | – | – | – |
| SW 900 | – | – | – | – | 0.216 | 0.194 | 0.177 | 0.177 | 0.71 | 0.597 | 0.564 | 0.55 | – | – | – | – | – | – | – | – |
| NCI-H522 | – | – | – | – | 1.23 | 1.1 | 0.974 | 1.04 | 0.675 | 0.605 | 0.703 | 0.622 | – | – | – | – | – | – | – | – |
| IA-LM | 0.389 | 0.271 | 0.381 | 0.323 | – | – | – | – | – | – | – | – | 0.734 | 0.277 | 0.6 | 0.685 | 1.01 | – | 0.967 | 0.938 |
